Results on six compounds are retold here after ChEMBL document CHEMBL1155959, “Inhibitory effects of polymethoxy flavones isolated from Citrus reticulate on degranulation in rat basophilic leukemia RBL-2H3: enhanced inhibition by their combination” (Bioorg Med Chem, 2008).

The source made the active and inactive calls. The rule behind the calls is not given here. Bounds are passed on as bounds.

For test [1], the system named is RBL-2H3. As to the kind of experiment: Effect on antigen-stimulated intracellular ROS production in IgE-sensitized CM-H2DCF-DA-treated rat RBL-2H3 cells assessed as increase in 2',7'-dichlorofluorescein oxidation at 50 uM after 30 mins in presence of dinitrophenylated bovine serum albumin. The test is classed as functional, cell-based.
The test system of test [2] is Radical scavenging activity. Nature of the test: Antioxidant activity assessed as DPPH radical scavenging activity. The class given is functional. In general terms: The DPPH test is a chemical assay of radical scavenging.
In test [3] the target is Tyrosine-protein kinase Lyn (Rattus norvegicus) (UniProt Q07014). Nature of the test: Inhibition of Lyn phosphorylation in antigen-stimulated rat RBL-2H3 cells at 50 uM by Western blot analysis in presence of dinitrophenylated bovine serum albumin. The test is classed as cell-based. (Immunoblotting shows a protein as a band on a membrane.)
Tyrosine-protein kinase Lyn (Rattus norvegicus), sequence (Q07014 whole entry): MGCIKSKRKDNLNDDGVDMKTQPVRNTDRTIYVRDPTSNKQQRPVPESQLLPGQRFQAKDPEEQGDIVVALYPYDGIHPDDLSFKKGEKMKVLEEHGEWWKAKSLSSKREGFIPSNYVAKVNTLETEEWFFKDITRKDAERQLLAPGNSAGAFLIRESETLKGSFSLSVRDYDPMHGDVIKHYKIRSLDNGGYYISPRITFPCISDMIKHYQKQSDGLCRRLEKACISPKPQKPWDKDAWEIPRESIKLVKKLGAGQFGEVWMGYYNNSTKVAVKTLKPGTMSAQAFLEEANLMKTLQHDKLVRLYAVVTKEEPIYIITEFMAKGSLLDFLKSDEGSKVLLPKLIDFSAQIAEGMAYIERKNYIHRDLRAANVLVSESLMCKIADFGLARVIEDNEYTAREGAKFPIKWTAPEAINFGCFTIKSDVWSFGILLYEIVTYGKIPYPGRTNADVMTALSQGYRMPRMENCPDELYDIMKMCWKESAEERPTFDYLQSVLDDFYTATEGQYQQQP
For test [4], the target named is Tyrosine-protein kinase SYK (Rattus norvegicus) (UniProt Q64725). As to the kind of experiment: Inhibition of Syk phosphorylation in antigen-stimulated rat RBL-2H3 cells at 50 uM by Western blot analysis in presence of dinitrophenylated bovine serum albumin. The test is classed as cell-based.
Tyrosine-protein kinase SYK (Rattus norvegicus), sequence (Q64725 whole entry, looked up): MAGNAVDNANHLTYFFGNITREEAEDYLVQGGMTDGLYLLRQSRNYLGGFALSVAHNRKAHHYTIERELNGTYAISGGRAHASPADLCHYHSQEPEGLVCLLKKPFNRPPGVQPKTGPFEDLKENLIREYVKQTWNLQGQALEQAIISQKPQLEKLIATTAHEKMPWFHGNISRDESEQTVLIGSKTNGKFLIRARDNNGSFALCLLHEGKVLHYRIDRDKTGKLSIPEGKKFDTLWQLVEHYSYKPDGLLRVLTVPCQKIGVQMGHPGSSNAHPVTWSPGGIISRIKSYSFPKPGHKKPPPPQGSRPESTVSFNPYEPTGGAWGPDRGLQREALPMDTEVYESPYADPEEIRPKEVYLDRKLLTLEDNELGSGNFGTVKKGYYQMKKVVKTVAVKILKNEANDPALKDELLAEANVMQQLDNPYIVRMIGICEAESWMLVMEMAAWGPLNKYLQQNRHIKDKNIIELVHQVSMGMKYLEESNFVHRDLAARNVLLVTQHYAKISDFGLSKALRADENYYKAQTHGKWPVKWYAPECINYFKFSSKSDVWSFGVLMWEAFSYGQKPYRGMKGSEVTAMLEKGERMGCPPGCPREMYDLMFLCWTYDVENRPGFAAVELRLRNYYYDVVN
For test [5], the target named is T1, 1-phosphatidylinositol 4,5-bisphosphate phosphodiesterase gamma-1 (Rattus norvegicus) (UniProt P10686).
T1 sequence (whole entry): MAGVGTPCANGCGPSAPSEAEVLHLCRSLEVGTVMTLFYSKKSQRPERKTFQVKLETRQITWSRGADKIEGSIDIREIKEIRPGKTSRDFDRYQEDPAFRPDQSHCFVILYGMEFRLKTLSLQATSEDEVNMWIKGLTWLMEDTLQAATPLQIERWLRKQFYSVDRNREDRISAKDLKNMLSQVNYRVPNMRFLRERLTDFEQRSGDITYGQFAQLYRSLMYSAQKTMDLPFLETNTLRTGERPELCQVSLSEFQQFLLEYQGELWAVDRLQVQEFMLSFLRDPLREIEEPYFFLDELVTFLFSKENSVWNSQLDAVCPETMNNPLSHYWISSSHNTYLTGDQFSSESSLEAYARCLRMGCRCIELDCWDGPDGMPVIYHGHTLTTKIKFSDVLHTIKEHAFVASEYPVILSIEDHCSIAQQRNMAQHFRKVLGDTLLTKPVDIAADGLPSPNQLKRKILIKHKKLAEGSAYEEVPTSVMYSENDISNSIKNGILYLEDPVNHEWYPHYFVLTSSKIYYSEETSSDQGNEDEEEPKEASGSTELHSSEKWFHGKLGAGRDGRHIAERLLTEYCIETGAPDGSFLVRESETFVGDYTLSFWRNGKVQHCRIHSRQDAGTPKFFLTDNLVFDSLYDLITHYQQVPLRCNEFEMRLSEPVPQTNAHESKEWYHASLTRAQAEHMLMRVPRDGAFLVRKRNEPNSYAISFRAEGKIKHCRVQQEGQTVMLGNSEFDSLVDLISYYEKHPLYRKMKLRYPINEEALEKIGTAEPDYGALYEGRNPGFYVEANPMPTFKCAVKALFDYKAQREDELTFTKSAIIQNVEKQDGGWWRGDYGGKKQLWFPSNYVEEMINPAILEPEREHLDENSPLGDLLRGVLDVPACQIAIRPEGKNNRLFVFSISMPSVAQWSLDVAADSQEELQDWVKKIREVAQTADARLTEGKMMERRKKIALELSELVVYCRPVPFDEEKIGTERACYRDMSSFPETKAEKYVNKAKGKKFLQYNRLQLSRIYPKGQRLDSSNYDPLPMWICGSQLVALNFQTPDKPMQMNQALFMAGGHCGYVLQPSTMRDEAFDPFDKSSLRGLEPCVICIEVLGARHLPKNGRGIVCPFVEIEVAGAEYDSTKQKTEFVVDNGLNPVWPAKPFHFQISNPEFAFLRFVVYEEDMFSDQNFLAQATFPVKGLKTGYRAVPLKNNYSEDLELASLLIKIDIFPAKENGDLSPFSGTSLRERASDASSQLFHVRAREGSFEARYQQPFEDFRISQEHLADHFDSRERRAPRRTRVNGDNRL
Nature of the test: Inhibition of PLC-gamma-1/gamma-2 phosphorylation in antigen-stimulated rat RBL-2H3 cells at 50 uM by Western blot analysis in presence of dinitrophenylated bovine serum albumin. The test is classed as cell-based.

Test [6] deals with Mitogen-activated protein kinase 1 and 3 (ERK2 and ERK1) (Rattus norvegicus) (UniProt P63086+P21708). Nature of the test: Inhibition of ERK1/2 phosphorylation in antigen-stimulated rat RBL-2H3 cells at 50 uM by Western blot analysis in presence of dinitrophenylated bovine serum albumin. The test is classed as cell-based.
Mitogen-activated protein kinase 1 and 3 (ERK2 and ERK1) (Rattus norvegicus), sequence (P21708 whole entry, looked up): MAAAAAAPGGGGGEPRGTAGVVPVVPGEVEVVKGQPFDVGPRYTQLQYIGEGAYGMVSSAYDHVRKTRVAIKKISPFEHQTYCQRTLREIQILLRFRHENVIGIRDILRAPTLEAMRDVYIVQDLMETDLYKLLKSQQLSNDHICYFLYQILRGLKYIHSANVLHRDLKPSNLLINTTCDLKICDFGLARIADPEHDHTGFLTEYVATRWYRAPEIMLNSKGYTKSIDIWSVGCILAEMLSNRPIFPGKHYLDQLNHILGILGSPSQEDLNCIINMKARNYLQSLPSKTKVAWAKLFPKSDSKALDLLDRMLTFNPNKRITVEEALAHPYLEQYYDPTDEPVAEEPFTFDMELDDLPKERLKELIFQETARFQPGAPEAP
Mitogen-activated protein kinase 1 and 3 (ERK2 and ERK1) (Rattus norvegicus), sequence (P63086 whole entry, looked up): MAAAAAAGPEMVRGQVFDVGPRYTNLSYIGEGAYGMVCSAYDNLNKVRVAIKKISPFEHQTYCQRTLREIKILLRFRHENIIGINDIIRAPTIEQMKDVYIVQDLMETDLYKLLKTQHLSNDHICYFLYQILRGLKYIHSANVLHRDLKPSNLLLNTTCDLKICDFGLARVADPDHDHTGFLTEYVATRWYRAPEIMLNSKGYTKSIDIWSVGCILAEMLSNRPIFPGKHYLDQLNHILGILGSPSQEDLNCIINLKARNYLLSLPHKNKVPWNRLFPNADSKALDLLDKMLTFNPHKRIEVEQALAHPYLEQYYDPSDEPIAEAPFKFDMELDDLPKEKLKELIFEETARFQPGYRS
In test [7] the target is Mitogen-activated protein kinase 8 (Rattus norvegicus) (UniProt P49185). Nature of the test: Inhibition of JNK1/2 phosphorylation in antigen-stimulated rat RBL-2H3 cells at 50 uM by Western blot analysis in presence of dinitrophenylated bovine serum albumin. The test is classed as cell-based.
Mitogen-activated protein kinase 8 (Rattus norvegicus), sequence (P49185 whole entry): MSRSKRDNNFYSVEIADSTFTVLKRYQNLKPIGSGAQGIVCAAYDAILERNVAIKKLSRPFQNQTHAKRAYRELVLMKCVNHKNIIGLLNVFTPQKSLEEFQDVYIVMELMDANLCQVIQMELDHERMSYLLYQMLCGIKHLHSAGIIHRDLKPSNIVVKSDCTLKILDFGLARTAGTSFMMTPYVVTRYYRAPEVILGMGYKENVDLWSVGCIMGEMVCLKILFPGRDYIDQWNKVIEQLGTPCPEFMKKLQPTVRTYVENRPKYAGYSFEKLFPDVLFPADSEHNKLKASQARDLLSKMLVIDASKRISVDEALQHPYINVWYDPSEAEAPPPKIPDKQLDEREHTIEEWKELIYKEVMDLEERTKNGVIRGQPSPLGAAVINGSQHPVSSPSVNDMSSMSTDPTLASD
The subject of test [8] is RBL-2H3. As to the kind of experiment: Inhibition of p38 MAPK phosphorylation in antigen-stimulated rat RBL-2H3 cells at 50 uM by Western blot analysis in presence of dinitrophenylated bovine serum albumin. The test is classed as cell-based.
Test [9] has as its system RBL-2H3. As to the kind of experiment: Suppression of degranulation in IgE-sensitized rat RBL-2H3 cells assessed as inhibition of antigen-stimulated histamine release after 30 mins in presence of dinitrophenylated bovine serum albumin. The test is classed as functional, cell-based.
The test system of test [10] is RBL-2H3. Nature of the test: Suppression of degranulation in IgE-sensitized rat RBL-2H3 cells assessed as inhibition of A-23187-stimulated histamine release after 30 mins. The class given is functional, cell-based.
In test [11] the test system is RBL-2H3. As to the kind of experiment: Inhibition of degranulation in IgE-sensitized rat RBL-2H3 cells assessed as inhibition of antigen-stimulated intracellular calcium elevation after 30 mins in presence of dinitrophenylated bovine serum albumin. The test is classed as functional, cell-based. For orientation: Calcium assays in cells follow changes in intracellular calcium, usually with a dye or a luminescent sensor.

Turning to `COc1ccc(OC)c(-c2cc(=O)c3c(OC)c(OC)cc(OC)c3o2)c1`, the result in test [1], in test [4], in test [5], in test [6], in test [10] and in test [11] was Active. The ED50 in [2] was under 100 µM. Also, the result in test [3], in test [7] and in test [8] was inactive. Moreover, the Activity result in test [9] is “Dose-dependent effect”.
Regarding `O=C1O[C@H]([C@@H](O)CO)C(O)=C1O`, the ED50 in test [2] came to 18 µM.
In the case of `COc1ccc(-c2cc(=O)c3c(O)c(OC)c(OC)cc3o2)cc1OC`, the result in test [1], in [4], in test [5], in test [6], in [10] and in test [11] was Active. Moreover, the ED50 in test [2] was under 100 µM. Besides, the result in [3], in test [7] and in test [8] was inactive. Besides, the Activity entry in [9] is “Dose-dependent effect”.
On to VITAMIN E, for which the ED50 in test [2] was found to be 78 µM.
Take `O=C(O[C@@H]1Cc2c(O)cc(O)cc2O[C@@H]1c1cc(O)c(O)c(O)c1)c1cc(O)c(O)c(O)c1`: the ED50 in test [2] is 7 µM.
Consider `COc1cc(-c2cc(=O)c3c(OC)c(OC)c(OC)cc3o2)cc(OC)c1OC`, for which the outcome in test [1], in test [4], in test [5], in [6] and in [10] was Active. Also, the ED50 in test [2] is under 100 µM. For the same compound, the result in [3], in [7], in test [8] and in [11] was inactive. In addition, the Activity result in test [9] was “Dose-dependent effect”.
